These results are taken from patent US20110172217A1, “RING-FUSED MORPHOLINE DERIVATIVE HAVING PI3K-INHIBITING ACTIVITY” (Shionogi & Co., Ltd., priority 2008, published 2011).

One series concerns the target T1, CYP1A2 (Homo sapiens, UniProt P05177).
T1 construct: enzyme: pooled human liver microsome 0.2 mg protein/mL; from tissue; host or cells: pooled human liver microsomes
T1 sequence (P05177 1-516): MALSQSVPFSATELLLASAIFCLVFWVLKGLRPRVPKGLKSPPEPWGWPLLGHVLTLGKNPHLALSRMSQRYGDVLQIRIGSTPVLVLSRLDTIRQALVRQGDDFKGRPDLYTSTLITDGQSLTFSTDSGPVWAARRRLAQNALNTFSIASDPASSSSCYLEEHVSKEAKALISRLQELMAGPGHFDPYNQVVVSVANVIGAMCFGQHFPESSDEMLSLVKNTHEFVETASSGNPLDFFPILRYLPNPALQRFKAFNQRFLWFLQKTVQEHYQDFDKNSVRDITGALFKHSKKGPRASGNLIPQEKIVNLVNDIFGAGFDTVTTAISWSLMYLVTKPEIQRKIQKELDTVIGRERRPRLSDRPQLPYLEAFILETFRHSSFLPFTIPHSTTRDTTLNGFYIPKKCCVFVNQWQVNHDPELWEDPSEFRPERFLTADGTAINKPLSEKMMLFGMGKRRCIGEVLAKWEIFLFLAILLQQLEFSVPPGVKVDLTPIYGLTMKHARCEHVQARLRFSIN
The series can be described thus: CYP inhibition test, O-de-ethylation of 7-ethoxyresorufin. The class given is in vitro ADME. Particulars: pooled human liver microsome; one of 5 kinds. From the text:
(§1) O-de-ethylation of 7-ethoxyresorufin (CYP1A2), methyl-hydroxylation of tolbutamide (CYP2C9), 4′-hydroxylation of mephenyloin (CYP2C19), O-demethylation of dextromethorphan (CYP2D6), and hydroxylation of terfenadine (CYP3A4), which are typical substrate for metabolic reactions of human main CYP5 molecular species (CYP1A2, 2C9, 2C19, 2D6, and 3A4), were adopted as indexes.
(§2) The reaction conditions are as follows: substrate: 0.5 μmol/L of ethoxyresorufin (CYP1A2), 100 μmol/L of tolbutamide (CYP2C9), 50 μmol/L of S-mephenyloin (CYP2C19), […] of dextromethorphan (CYP2D6), and 1 μmol/L of terfenadine (CYP3A4); reaction time; 15 minutes; reaction temperature: 37° C.; enzyme: pooled human liver microsome 0.2 mg protein/mL; test drug concentration: 1, 5, 10, and 20 μmol/L (4 points).
(§3) In a 96-well plate, as a reaction solution, five kinds of substrates, a human liver microsome, and a test drug were added to 50 mmol/L Hepes buffer solution in the aforementioned ratio. A coenzyme NADPH was added to start a metabolic reaction, which is an index. After reacting at 37° C. for 15 minutes, a solution of methanol/acetonitrile (1/1 (v/v)) was added to quench the reaction. After centrifugation at 3000 rpm for 15 minutes, resorufin (CYP1A2 metabolite) in the supernatant was quantitated with a fluorescence multilabel counter, and hydroxylated tolbutamide (CYP2C9 metabolite), 4′-hydroxylated mephenyloin (CYP2C19 metabolite), […], terfenadine in alcohol form (CYP3A4 metabolite) were quantitated with LC/MS/MS.
(§4) The case wherein only DMSO (a solvent which dissolved a drug) was added to a reaction system was defined as a control (100%). When a test drug solution was added, the remaining activity (%) at each concentration was calculated, and then IC50 was calculated with a concentration and an inhibition ratio by an inverse estimation using a logistic model.
For orientation: Microsomes from liver hold many membrane-bound enzymes, among them those of drug oxidation.

Series [1] in a line: Solubility test in artificial intestinal juice pH 6.8. The class given is physicochemical. The note with it: kinetic from dmso stock, artificial intestinal juice pH 6.8, 1% DMSO, 25° C. The protocol: The solubility of a compound was determined under a condition in which 1% DMSO was added. 10 mmol/L compound solution was prepared using DMSO, and then 6 μL of the compound solution was added to 594 μL of artificial intestinal juice in pH 6.8 (to 250 mL of 0.2 mol/L potassium dihydrogen phosphate reagent solution was added 118 mL of 0.2 mol/L NaOH reagent solution and water to provide a final volume of 1000 mL). After standing at 25° C. for 16 hours, the mixed solution was filtered with suction. The filtrate was diluted twice with methanol/water (1/1), and then a concentration in the filtration was measured with HPLC or LC/MS/MS by the absolute calibration method.

The target in series [2] is T2, PI-3 kinase γ (Homo sapiens, UniProt P48736). Put plainly: PI3Kγ inhibitory activity, PI3-kinase HTRF assay (inhibition ratio). The format is biochemical. The note with it: 0.5 h, compound at 50 μmol/L. The method, boiled down:
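Human PI3Kγ was preincubated 10 min with compound and PIP2 substrate, then reacted 30 min at room temperature with ATP (40 μmol/L in the added solution); EDTA/biotin-PIP3 quenched. HTRF 665/620 nm ratio read after 18 h, normalized to no-compound (100%) and no-enzyme (0%) controls, gave % inhibition at 50 or 10 μmol/L compound.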

A short description of series [3]: Metabolic stability test, pooled human liver microsome. The class given is in vitro ADME. Particulars: 2 μmol/L compound; human liver microsome 0.5 mg protein/mL, NADPH, 37° C. The protocol:
After a subject compound was reacted for a certain time using a commercially available pooled human liver microsome, a reacted sample and an unreacted sample are compared to calculate a survival ratio, and then the degree of metabolism in the liver was evaluated.
0.2 mL of a buffer solution (50 mmol/L of Tris-HCl in pH 7.4, 150 mmol/L of potassium chloride, and 10 mmol/L of magnesium chloride) containing a human liver microsome of 0.5 mg protein/mL was reacted in the presence of 1 mmol/L NADPH at 37° C. for 0 or 30 minutes (oxidative reaction). After reacting, 50 μL of the reaction solution was added to 100 μL of a solution of methanol/acetonitrile (1/1 (v/v)), mixed, and then centrifuged at 3000 rpm for 15 minutes. The test compound in the supernatant was quantitated with LC/MS/MS. The amount of the compound at a reaction time of 0 minute was defined as 100% and, based on that, the percentage of the test compound remained after reacting for 30 minutes was calculated.

A further series has as its target T3, CYP3A4 (Homo sapiens, UniProt P08684).
T3 construct: enzyme: pooled human liver microsome 0.2 mg protein/mL; from tissue; host or cells: pooled human liver microsomes
Put plainly: CYP inhibition test, hydroxylation of terfenadine. The format is in vitro ADME. Particulars: pooled human liver microsome; one of 5 kinds.
Source text: as §1, §2, §3, §4

In a further series the target is T4, CYP2C9 (Homo sapiens, UniProt P11712).
T4 construct: enzyme: pooled human liver microsome 0.2 mg protein/mL; from tissue; host or cells: pooled human liver microsomes
T4 sequence (P11712 whole entry): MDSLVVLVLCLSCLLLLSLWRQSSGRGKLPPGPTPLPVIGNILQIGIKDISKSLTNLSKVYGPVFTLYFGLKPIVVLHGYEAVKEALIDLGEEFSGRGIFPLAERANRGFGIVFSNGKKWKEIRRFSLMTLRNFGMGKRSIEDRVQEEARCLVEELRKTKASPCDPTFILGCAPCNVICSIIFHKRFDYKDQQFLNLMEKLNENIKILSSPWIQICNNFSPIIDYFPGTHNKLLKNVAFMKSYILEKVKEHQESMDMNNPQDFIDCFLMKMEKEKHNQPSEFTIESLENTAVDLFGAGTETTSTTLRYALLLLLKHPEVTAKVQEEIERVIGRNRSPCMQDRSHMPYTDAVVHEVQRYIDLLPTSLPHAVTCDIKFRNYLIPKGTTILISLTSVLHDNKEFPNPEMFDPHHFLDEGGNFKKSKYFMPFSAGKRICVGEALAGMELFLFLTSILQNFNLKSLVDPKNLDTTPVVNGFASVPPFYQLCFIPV
The series can be described thus: CYP inhibition test, methyl-hydroxylation of tolbutamide. The format is in vitro ADME. The note with it: pooled human liver microsome; one of 5 kinds.
Source text: as §1, §2, §3, §4

For a further series, the target named is T5, CYP2D6 (Homo sapiens, UniProt P10635).
T5 construct: enzyme: pooled human liver microsome 0.2 mg protein/mL; from tissue; host or cells: pooled human liver microsomes
T5 sequence (P10635 whole entry): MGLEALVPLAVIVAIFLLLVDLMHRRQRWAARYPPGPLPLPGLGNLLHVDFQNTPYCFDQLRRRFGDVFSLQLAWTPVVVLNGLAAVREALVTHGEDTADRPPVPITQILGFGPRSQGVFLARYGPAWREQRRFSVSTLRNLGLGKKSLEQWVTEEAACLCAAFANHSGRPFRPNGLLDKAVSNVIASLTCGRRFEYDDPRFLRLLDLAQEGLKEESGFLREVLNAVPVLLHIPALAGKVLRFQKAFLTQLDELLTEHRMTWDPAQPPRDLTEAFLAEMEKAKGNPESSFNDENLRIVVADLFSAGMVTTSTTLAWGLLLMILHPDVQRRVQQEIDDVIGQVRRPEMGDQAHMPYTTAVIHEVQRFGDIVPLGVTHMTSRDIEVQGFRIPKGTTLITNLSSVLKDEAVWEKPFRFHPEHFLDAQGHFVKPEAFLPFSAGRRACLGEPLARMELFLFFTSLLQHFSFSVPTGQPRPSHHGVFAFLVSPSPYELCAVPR
Put plainly: CYP inhibition test, O-demethylation of dextromethorphan. The class given is in vitro ADME. Particulars: pooled human liver microsome; one of 5 kinds.
Source text: as §1, §2, §3, §4

The target in a further series is T6, CYP2C19 (Homo sapiens, UniProt P33261).
T6 construct: enzyme: pooled human liver microsome 0.2 mg protein/mL; from tissue; host or cells: pooled human liver microsomes
T6 sequence (P33261 whole entry): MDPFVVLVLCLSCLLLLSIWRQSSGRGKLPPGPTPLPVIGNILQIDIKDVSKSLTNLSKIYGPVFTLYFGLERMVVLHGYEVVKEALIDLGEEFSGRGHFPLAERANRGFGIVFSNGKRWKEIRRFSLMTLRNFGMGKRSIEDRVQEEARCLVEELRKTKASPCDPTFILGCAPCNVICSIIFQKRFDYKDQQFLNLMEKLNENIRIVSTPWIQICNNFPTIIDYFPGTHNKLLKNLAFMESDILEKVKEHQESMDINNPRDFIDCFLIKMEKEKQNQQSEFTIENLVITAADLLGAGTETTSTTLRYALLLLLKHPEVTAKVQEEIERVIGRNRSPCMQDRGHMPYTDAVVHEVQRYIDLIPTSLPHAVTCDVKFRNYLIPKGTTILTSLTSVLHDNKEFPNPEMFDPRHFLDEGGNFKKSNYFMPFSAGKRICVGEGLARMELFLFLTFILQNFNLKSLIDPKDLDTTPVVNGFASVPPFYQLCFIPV
The series can be described thus: CYP inhibition test, 4′-hydroxylation of mephenyloin. The note with it: pooled human liver microsome; one of 5 kinds. The class given is in vitro ADME.
Source text: as §1, §2, §3, §4

Series [4] deals with T2, PI-3 kinase γ. The series can be described thus: PI3Kγ inhibitory activity (Ki value). The format is biochemical. The note with it: test ATP concentration 10 μmol/L. The protocol: The PI3Kγ inhibitory activity (Ki value) of a compound was evaluated according to the following procedure:
5 μL of a compound solution containing 10% DMSO and 200 μmol/L of a compound was changed to 5 μL of a compound solution containing 10% DMSO and either 200, 64, 20, 6.4, 2, 0.64, or 0.20 μmol/L of the compound (optionally, this is diluted to a lower concentration). Using a method similar to the method for measuring PI3Kγ inhibitory activity, inhibition ratios were measured in the presence of the compound at 50, 16, 5, 1.6, 0.5, 0.16, and 0.05 μmol/L (optionally, a lower concentration). Then an IC50 value was calculated by a logistic approximation method or the linear regression method using two concentrations that across 50% inhibition. Separately, the ATP concentration in the reaction solution (40 μmol/L ATP, 10 mmol/L MgCl2, 5 mmol/L DTT) at the time of the start of a reaction in the absence of the compound was changed to 80, 40, 20, 10, 5, 2.5, 1.25, or 0.625 μmol/L. Then, HTRF ratios were measured by a similar method. The value obtained by subtracting the HTRF ratio at each ATP concentration from the HTRF ratio in the absence of PI-3 kinase γ was defined as the value obtained by multiplying reaction rate (v) at each ATP concentration with a constant. The Michaelis-Menten constant Km was then calculated by the Lineweaver-Burk plot method. The Ki value of a compound was calculated by the following formula.
Ki=IC50 value/(1+10 μmol/L (test ATP concentration)/Km(μmol/L))

The target in series [5] is T7, human ether-a-go-go related gene (hERG) channel (Homo sapiens, UniProt Q12809).
T7 construct: expressed in transfected cells; host or cells: HEK293
T7 sequence (Q12809 whole entry): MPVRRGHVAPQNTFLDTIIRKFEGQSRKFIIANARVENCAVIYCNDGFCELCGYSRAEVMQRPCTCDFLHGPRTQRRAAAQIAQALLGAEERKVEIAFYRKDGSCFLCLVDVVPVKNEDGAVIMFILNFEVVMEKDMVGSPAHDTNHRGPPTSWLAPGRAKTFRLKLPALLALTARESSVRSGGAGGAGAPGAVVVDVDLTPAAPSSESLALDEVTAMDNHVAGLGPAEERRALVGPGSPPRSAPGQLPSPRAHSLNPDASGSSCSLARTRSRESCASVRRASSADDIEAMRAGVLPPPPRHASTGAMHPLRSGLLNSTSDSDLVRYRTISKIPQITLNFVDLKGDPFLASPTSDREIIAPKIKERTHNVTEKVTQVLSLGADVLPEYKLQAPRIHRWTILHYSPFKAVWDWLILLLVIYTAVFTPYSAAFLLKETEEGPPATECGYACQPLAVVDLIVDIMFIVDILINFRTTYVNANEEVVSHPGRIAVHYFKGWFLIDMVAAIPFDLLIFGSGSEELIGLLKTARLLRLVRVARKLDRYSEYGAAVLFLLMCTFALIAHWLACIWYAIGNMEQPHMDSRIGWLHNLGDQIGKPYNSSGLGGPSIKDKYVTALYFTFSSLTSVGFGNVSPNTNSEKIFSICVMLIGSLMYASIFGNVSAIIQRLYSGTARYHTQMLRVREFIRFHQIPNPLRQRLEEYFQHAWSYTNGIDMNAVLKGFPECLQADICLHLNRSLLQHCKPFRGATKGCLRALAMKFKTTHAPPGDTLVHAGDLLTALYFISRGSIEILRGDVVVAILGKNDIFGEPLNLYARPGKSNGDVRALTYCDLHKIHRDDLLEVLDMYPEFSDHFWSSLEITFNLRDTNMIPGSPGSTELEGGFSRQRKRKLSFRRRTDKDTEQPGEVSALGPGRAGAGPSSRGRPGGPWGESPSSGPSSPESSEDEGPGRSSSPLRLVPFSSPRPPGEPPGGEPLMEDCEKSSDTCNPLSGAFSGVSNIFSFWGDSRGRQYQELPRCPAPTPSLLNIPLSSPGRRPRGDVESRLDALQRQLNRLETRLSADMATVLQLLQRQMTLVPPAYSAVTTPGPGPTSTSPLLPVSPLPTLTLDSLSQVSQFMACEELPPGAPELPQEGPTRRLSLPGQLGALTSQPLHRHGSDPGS
The series can be described thus: hERG test, whole-cell patch-clamp, IKr. The class given is cell-based. Particulars: 1 μmol/L compound; HEK293 cell expressing hERG. From the text: For the purpose of risk evaluation of QT interval extension of electrocardiogram, the activity on delayed rectification K^+ current (IKr), which plays an important role in a cardiac ventricle repolarization process, was examined using the HEK293 cell that was made to express human ether-a-go-go related gene (hERG) channel.
Using an automatic patch-clamp system (PatchXpress 7000A, Axon Instruments Inc.), by a whole-cell patch-clamp method, after the cell was maintained at a membrane potential of −80 mV, IKr induced upon applying depolarizing stimulation of +50 mV for 2 seconds and further applying repolarizing stimulation of −50 mV for 2 seconds was recorded. After generated electric current became stable, a test substance dissolved at an intended concentration in extracellular fluid (137 mmol/L NaCl, 4 mmol/L KCl, 1.8 mmol/L CaCl2.2H2O, 1 mmol/L MgCl2.6H2O, 10 mmol/L glucose, 10 mmol/L HEPES (4-(2-hydroxyethyl)-1-piperazineethanesulfonic acid), pH=7.4) was applied to the cell for 10 minutes under room temperature condition. From the obtained IKr, the absolute value of the maximum tail current was measured using analysis software (DataXpress ver. 1, Molecular Devices Corporation) and the value of the electric current in a maintained membrane potential as baseline. Moreover, an inhibition ratio for the maximum tail current prior to the application of the test substance was calculated and then compared with a group of media-application (0.1% dimethylsulfoxide solution) to evaluate influence of the test substance on IKr.
In general terms: The hERG channel carries a current that helps repolarise heart muscle cells.

T2 sequence (P48736 whole entry): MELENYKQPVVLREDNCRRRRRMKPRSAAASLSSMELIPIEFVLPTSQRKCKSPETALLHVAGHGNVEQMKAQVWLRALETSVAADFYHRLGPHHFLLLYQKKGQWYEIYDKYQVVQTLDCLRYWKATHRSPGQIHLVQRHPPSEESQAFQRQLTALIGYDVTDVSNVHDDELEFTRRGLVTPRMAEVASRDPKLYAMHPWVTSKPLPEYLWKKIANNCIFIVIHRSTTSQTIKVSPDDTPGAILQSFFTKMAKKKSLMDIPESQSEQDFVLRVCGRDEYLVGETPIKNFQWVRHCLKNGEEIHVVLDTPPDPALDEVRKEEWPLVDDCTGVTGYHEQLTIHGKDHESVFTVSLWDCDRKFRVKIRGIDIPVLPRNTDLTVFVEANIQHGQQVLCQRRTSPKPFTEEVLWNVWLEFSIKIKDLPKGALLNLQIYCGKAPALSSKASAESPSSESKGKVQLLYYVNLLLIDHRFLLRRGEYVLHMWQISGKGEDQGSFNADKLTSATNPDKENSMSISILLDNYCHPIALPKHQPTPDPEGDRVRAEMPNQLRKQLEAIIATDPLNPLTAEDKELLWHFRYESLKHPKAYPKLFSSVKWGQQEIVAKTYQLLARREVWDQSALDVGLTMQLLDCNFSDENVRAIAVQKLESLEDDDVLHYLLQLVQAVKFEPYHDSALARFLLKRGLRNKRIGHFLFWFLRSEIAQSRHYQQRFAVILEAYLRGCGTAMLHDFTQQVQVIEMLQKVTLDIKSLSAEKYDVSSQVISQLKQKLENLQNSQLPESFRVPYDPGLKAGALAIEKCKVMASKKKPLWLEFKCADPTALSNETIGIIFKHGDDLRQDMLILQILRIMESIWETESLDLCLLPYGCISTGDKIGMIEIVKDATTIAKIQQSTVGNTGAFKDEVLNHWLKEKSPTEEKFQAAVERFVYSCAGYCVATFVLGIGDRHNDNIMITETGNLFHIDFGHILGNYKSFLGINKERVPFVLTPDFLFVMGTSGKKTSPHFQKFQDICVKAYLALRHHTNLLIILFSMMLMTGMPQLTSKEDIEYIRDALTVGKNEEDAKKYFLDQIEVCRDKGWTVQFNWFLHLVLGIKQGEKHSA
T3 sequence (P08684 whole entry): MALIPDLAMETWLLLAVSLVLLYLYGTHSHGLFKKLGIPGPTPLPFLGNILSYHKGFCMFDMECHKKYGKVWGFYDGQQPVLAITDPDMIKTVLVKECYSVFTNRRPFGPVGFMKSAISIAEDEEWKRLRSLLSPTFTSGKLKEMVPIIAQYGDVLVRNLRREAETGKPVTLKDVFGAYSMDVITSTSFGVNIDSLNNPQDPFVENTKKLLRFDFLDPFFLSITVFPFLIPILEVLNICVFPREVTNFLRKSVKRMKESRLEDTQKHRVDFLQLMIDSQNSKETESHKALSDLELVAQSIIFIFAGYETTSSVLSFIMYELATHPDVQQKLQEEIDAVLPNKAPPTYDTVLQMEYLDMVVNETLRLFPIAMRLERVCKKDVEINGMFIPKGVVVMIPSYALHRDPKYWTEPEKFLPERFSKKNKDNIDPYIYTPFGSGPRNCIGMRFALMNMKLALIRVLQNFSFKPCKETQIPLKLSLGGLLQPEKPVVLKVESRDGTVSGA

On to `CC1(C)SC(N2CCOc3cccnc32)=NC1=O` [Compound I-49], for which the IC50 against CYP1A2, against CYP3A4, against CYP2C9, against CYP2D6 and on CYP2C19 was greater than 20 µM in each case. Moreover, the solubility (as a rule, the dissolved amount per volume that the medium holds) at 16 h in [1] was greater than 50 µM. For the same compound, the inhibition (as a rule, the drop in the measured response relative to a control, in per cent) at 50 µM at PI-3 kinase γ [2] is no less than 95%. Moreover, the “percentage of test compound remained after reacting for 30 minutes” value (shortened to “percentage of test compound remained”) in series [3] came to 90.1%.
With `COc1ccc(-c2ccc3c(n2)N(C2=NC(=O)C(C)(C)S2)CCO3)cc1OC` [Compound I-330], on PI-3 kinase γ [4], the Ki – broadly, a dissociation constant, usually derived from enzyme kinetics or from competition with a known ligand – was found to be 0.027 µM. The inhibition at 50 µM at PI-3 kinase γ [2] was 95%.
As to `O=C(O)c1ccc(-c2ccc3c(n2)N(C(=O)Nc2ccccc2)CCO3)s1` [Compound I-109], in [5], the “hERG inhibition ratio for the maximum tail current (IKr)” value stood at 1%. In addition, in series [1], the solubility at 16 h was greater than 50 µM. The inhibition at 50 µM on PI-3 kinase γ [2] was no less than 95%.
In the case of `O=C(O)c1ccc(Nc2cnc3c(c2)OCCN3C(=O)Nc2ccccc2)cc1` [Compound I-139], in series [5], the “hERG inhibition ratio for the maximum tail current (IKr)” value was 8.7%. The same compound gave a solubility at 16 h in series [1] greater than 50 µM. On PI-3 kinase γ [2], the inhibition at 50 µM is no less than 95%. The “percentage of test compound remained” value in [3] is 83%.
In the case of `O=C(O)CNC(=O)Nc1cnc2c(c1)OCCN2C(=O)Nc1ccccc1` [Compound I-239], the IC50 against CYP1A2, against CYP3A4, at CYP2C9, at CYP2D6 and at CYP2C19 was greater than 20 µM throughout. The solubility at 16 h in [1] is greater than 50 µM. The inhibition at 50 µM at PI-3 kinase γ [2] was no less than 95%. In addition, the “percentage of test compound remained” value in [3] is 100%.
Consider `O=C(O)c1ccc(-c2ccc3c(n2)N(C(=O)Nc2cccnc2)CCO3)cc1` [Compound I-208], for which the Ki at PI-3 kinase γ [4] was 0.031 µM. In addition, at PI-3 kinase γ [2], the inhibition at 50 µM was no less than 95%.
`O=C(O)c1ccc(Nc2ccc3c(n2)N(C(=O)Nc2ccccc2)CCO3)cc1` [Compound I-146]: at PI-3 kinase γ [4], the Ki is 0.046 µM. Moreover, at PI-3 kinase γ [2], the inhibition at 50 µM is no less than 95%. For the same compound, the “percentage of test compound remained” value in series [3] was 100%.
Compound `O=C(O)COc1ccccc1Nc1ccc2c(n1)N(C(=O)Nc1ccccc1)CCO2` [Compound I-248] had a Ki on PI-3 kinase γ [4] of 0.025 µM. This compound came in with a solubility at 16 h in series [1] greater than 50 µM. Also, the inhibition at 50 µM on PI-3 kinase γ [2] is no less than 95%.
